Results on 22 compounds are retold here after patent US20230416225A1, “DIAMINOPYRIMIDINE CARBOXAMIDE INHIBITORS OF HPK1” (MERCK SHARP & DOHME LLC, priority 2020, published 2023).

In general, IC50 refers to the midpoint of a concentration-inhibition curve.

This experiment addresses T1, Human HPK1, catalytic domain (Homo sapiens, UniProt Q92918).
T1 construct: purchased Carna
T1 sequence (Q92918 1-346): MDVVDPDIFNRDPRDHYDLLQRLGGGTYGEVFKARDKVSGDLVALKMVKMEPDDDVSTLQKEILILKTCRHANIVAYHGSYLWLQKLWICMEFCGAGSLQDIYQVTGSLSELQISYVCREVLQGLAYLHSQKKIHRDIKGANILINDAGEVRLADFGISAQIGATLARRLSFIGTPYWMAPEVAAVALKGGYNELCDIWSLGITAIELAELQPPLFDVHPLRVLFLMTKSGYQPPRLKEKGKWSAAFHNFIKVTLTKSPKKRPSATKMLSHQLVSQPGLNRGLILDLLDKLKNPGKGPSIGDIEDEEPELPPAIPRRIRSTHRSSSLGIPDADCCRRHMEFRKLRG
As to the kind of experiment: HPK1-SLP76 TR-FRET assay. It counts as biochemical. As to conditions: 75 pM HPK1, 10 uM ATP, 10 nM SLP76, 30 min compound pre-incubation. A general note: Time-resolved FRET reads energy transfer from a long-lived donor to a nearby acceptor.

For the compound `COc1cc2c(cc1Nc1ncc(C(N)=O)c(Nc3ccccc3Br)n1)CN(C(=O)CC(F)(F)F)CC2` [Example 12-11, 4-[(2-bromophenyl)amino]-2-{[6-methoxy-2-(3,3,3-trifluoropropanoyl)-1,2,3,4-tetrahydroisoquinolin-7-yl]amino}pyrimidine-5-carboxamide], the IC50 is 11.1 nM. With `COc1cc2c(cc1Nc1ncc(C(N)=O)c(N[C@@H](C)c3cccc(F)c3F)n1)CN(C)CC2` [Example 26-19, 4-{[(1S)-1-(2,3-difluorophenyl)ethyl]amino}-2-[(6-methoxy-2-methyl-1,2,3,4-tetrahydroisoquinolin-7-yl)amino]pyrimidine-5-carboxamide] the figure was 2.49 nM. With `COc1cc2c(cc1Nc1ncc(C(N)=O)c(NC(C)c3ccccc3C(F)(F)F)n1)CN(C)CC2` (stereo not shown) [Example 26-22, 2-[(6-methoxy-2-methyl-1,2,3,4-tetrahydroisoquinolin-7-yl)amino]-4-({1-[2-(trifluoromethyl)phenyl]ethyl}amino)pyrimidine-5-carboxamide] the figure was 1.43 nM; with `C=CCCCN1CCc2cc(OC)c(Nc3ncc(C(N)=O)c(Nc4c(F)cc(Br)cc4F)n3)cc2C1` [Example 10-4, 4-(4-bromo-2,6-difluoroanilino)-2-{[6-methoxy-2-(pent-4-en-1-yl)-1,2,3,4-tetrahydroisoquinolin-7-yl]amino}pyrimidine-5-carboxamide], 67.1 nM; with `COc1cc2c(cc1Nc1ncc(C(N)=O)c(NCc3ccncc3)n1)CN(C)CC2` [Example 26-55, 2-[(6-methoxy-2-methyl-1,2,3,4-tetrahydroisoquinolin-7-yl)amino]-4-{[(pyridin-4-yl)methyl]amino}pyrimidine-5-carboxamide], 224 nM. Compound `COc1cc2c(cc1Nc1ncc(C(N)=O)c(Nc3ccc(F)cc3)n1)CN(C)CC2` [Example 7-21, 4-[(4-fluorophenyl)amino]-2-[(6-methoxy-2-methyl-1,2,3,4-tetrahydroisoquinolin-7-yl)amino]pyrimidine-5-carboxamide] gave an IC50 of 0.51 nM.

Compound `COc1cc2c3cc1Nc1ncc(C(N)=O)c(n1)Nc1c(F)cc(cc1F)CCCCCN(CC2)C3` [Example 19-1, 52,56-Difluoro-16-methoxy-11,12,13,14-tetrahydro-2,4-diaza-1(7,2)-isoquinolina-3(2,4)-pyrimidina-5(1,4)-benzenacyclodecaphane-35-carboxamide] yielded an IC50 of 3.01 nM. With `NC(=O)c1cnc(Nc2cnn(CC(F)(F)F)c2)nc1Nc1cccc2c1CCNC2=O` [Example 7-45, 4-[(1-oxo-1,2,3,4-tetrahydroisoquinolin-5-yl)amino]-2-{[1-(2,2,2-trifluoroethyl)-1H-pyrazol-4-yl]amino}pyrimidine-5-carboxamide] the figure was 19.5 nM; with `COc1cc2c(cc1Nc1ncc(C(N)=O)c(Nc3ccccc3Br)n1)CN(C1CC(C#N)C1)CC2` (stereo not shown) [Example 9-6, 4-((2-bromophenyl)amino)-2-((2-(3-cyanocyclobutyl)-6-methoxy-1,2,3,4-tetrahydroisoquinolin-7-yl)amino)pyrimidine-5-carboxamide], 4.57 nM; with `COc1cc2c(cc1Nc1ncc(C(N)=O)c(Nc3ccccc3-c3nccs3)n1)CN(C)CC2` [Example 14-2, 2-[(6-methoxy-2-methyl-1,2,3,4-tetrahydroisoquinolin-7-yl)amino]-4-{[2-(1,3-thiazol-2-yl)phenyl]amino}pyrimidine-5-carboxamide], 0.26 nM. With `COc1cc2c(cc1Nc1ncc(C(N)=O)c(Nc3ccccc3CC(F)(F)F)n1)CN(C)CC2` [Example 7-98, 2-[(6-methoxy-2-methyl-1,2,3,4-tetrahydroisoquinolin-7-yl)amino]-4-{[2-(2,2,2-trifluoroethyl)phenyl]amino}pyri-midine-5-carboxamide] the figure was 0.07 nM.

For `CC(N)c1cccc(Nc2nc(Nc3cc4c(cc3F)CCN(C)C4)ncc2C(N)=O)c1` (stereo not shown) [Example 2-7, 4-{[3-(1-aminoethyl)phenyl]-amino}-2-[(6-fluoro-2-methyl-1,2,3,4-tetrahydroisoquinolin-7-yl)amino]pyrimidine-5-carboxamide], the IC50 was 0.24 nM. With `COc1cc2c(cc1Nc1ncc(C(N)=O)c(Nc3c(F)cccc3C(C)O)n1)CN(C)CC2` (racemic) [Example 23-2, (RAC)-4-((2-fluoro-6-(1-hydroxyethyl)phenyl)amino)-2-((6-methoxy-2-methyl-1,2,3,4-tetrahydroisoquinolin-7-yl)amino)pyrimidine-5-carboxamide] the figure was 0.82 nM; with `COc1cc2c(cc1Nc1ncc(C(N)=O)c(NC3CC4C5CCC(C5)C34)n1)CN(C)CC2` (stereo not shown) [Example 26-15, 2-[(6-methoxy-2-methyl-1,2,3,4-tetrahydroisoquinolin-7-yl)amino]-4-[(tricyclo[4.2.1.0~2,5~]nonan-3-yl)amino]pyrimidine-5-carboxamide], 0.25 nM; with `COc1cc2c(cc1Nc1ncc(C(N)=O)c(NC3CCC(OC)CC3)n1)CN(C)CC2` (stereo not shown) [Example 26-31, 4-[(4-methoxycyclohexyl)amino]-2-[(6-methoxy-2-methyl-1,2,3,4-tetrahydroisoquinolin-7-yl)amino]pyrimidine-5-carboxamide], 5.18 nM. With `COc1cc2c(cc1Nc1ncc(C(N)=O)c(Nc3cc(C)nn3CCO)n1)CN(C)CC2` [Example 7-90, 4-((1-(2-hydroxyethyl)-3-methyl-1H-pyrazol-5-yl)amino)-2-((6-methoxy-2-methyl-1,2,3,4-tetrahydroisoquinolin-7-yl)amino)pyrimidine-5-carboxamide] the figure was 1.44 nM; with `COc1cc(F)ccc1Nc1ncc(C(N)=O)c(Nc2cccc3c2CCNC3=O)n1` [Example 25-41, 2-[(4-fluoro-2-methoxyphenyl)amino]-4-[(1-oxo-1,2,3,4-tetrahydroisoquinolin-5-yl)amino]pyrimidine-5-carboxamide], 733 nM.

As to `Cc1ccc(C(F)(F)F)cc1Nc1ncc(C(N)=O)c(Nc2cccc3c2CCNC3=O)n1` [Example 25-32, 2-{[2-methyl-5-(trifluoromethyl)phenyl]amino}-4-[(1-oxo-1,2,3,4-tetrahydroisoquinolin-5-yl)amino]pyrimidine-5-carboxamide], the midpoint of inhibition, the IC50, lay at 455 nM.

Take `COc1cc2c(cc1Nc1ncc(C(N)=O)c(Nc3cccc(Br)c3)n1)CN(C)CC2` [Example 7-71, 4-[(3-bromophenyl)amino]-2-[(6-methoxy-2-methyl-1,2,3,4-tetrahydroisoquinolin-7-yl)amino]pyrimidine-5-carboxamide]: the IC50 is 1.49 nM. With `COc1cc2c(cc1Nc1ncc(C(N)=O)c(Nc3ccccc3C[C@H](O)c3ccccc3)n1)CN(C)CC2` [Example 13-9, 4-({2-[(2S)-2-hydroxy-2-phenylethyl]phenyl}amino)-2-[(6-methoxy-2-methyl-1,2,3,4-tetrahydroisoquinolin-7-yl)amino]pyrimidine-5-carboxamide] the figure was 312 nM. With `COc1cc2c(cc1Nc1ncc(C(N)=O)c(Nc3c(C)cccc3F)n1)CN(CC(C)(C)O)CC2` [Example 5-2] the figure was 2.54 nM. For `COC[C@H]1CCC[C@H]1Nc1nc(Nc2cc3c(cc2OC)CCN(C)C3)ncc1C(N)=O` [Example 26-28, 4-{[(1R,2S)-2-(methoxymethyl)cyclopentyl]amino}-2-[(6-methoxy-2-methyl-1,2,3,4-tetrahydroisoquinolin-7-yl)amino]pyrimidine-5-carboxamide], it took 4.92 nM to reach half-maximal inhibition (IC50).
